Measurements reported in patent US8846698B2, “Pyrrolo[2,3-d]pyrimidine tropomysin-related kinase inhibitors” (Pfizer Limited, priority 2011, dated 2014).

Target: TRKA (Homo sapiens (Human), UniProt P04629)
Test: Isolated TRK enzyme assay (HTRF KinEASE-TK), TRKA
Format: biochemical
Settings: read-out: Trka enzyme (IC50)

Sequence of TRKA (P04629 441-796): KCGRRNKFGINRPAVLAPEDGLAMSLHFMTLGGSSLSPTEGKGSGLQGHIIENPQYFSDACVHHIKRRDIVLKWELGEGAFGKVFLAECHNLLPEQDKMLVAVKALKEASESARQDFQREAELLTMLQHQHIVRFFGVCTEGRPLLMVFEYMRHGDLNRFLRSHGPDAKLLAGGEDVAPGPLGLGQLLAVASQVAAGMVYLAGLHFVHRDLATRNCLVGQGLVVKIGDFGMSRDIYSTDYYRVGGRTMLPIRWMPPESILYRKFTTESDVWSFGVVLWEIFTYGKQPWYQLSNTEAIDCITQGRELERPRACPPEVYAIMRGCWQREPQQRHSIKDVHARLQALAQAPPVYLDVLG

| IC50 | SMILES |
| --- | --- |
| 9800 nM | CC(C)n1cc(C(=O)c2cncc(NC(=O)c3cnco3)c2)c2cncnc21 [Example 390, Oxazole-5-carboxylic acid [5-(7-isopropyl-7H-pyrrolo[2,3-d]pyrimidine-5-carbonyl)-pyridin-3-yl]-amide] |
| 246 nM | Cc1c[nH]c(C(=O)Nc2cncc(C(=O)c3cn(C(C)C)c4ncncc34)c2)n1 [Example 391, 4-Methyl-1H-imidazole-2-carboxylic acid [5-(7-isopropyl-7H-pyrrolo[2,3-d]pyrimidine-5-carbonyl)-pyridin-3-yl]-amide] |
| 135 nM | CC(C)n1cc(C(=O)c2cncc(NC(=O)c3cc4cc[nH]c4cn3)c2)c2cncnc21 [Example 392, 1H-Pyrrolo[2,3-c]pyridine-5-carboxylic acid [5-(7-isopropyl-7H-pyrrolo[2,3-d]pyrimidine-5-carbonyl)-pyridin-3-yl]-amide] |
| 1360 nM | Cc1cnc(C(=O)Nc2cncc(C(=O)c3cn(C(C)C)c4ncncc34)c2)cn1 [Example 393, 5-Methyl-pyrazine-2-carboxylic acid[5-(7-isopropyl-7H-pyrrolo[2,3-d]pyrimidine-5-carbonyl)-pyridin-3-yl]-amide] |
| 7120 nM | Cc1nn(C)cc1C(=O)Nc1cncc(C(=O)c2cn(C(C)C)c3ncncc23)c1 [Example 394, 1,3-Dimethyl-1H-pyrazole-4-carboxylic acid [5-(7-isopropyl-7H-pyrrolo[2,3-d]pyrimidine-5-carbonyl)-pyridin-3-yl]-amide] |
| 1350 nM | CC(C)n1cc(C(=O)c2cncc(NC(=O)c3cnc4cn[nH]c4c3)c2)c2cncnc21 [Example 395, 1H-Pyrazolo[4,3-b]pyridine-6-carboxylic acid [5-(7-isopropyl-7H-pyrrolo[2,3-d]pyrimidine-5-carbonyl)-pyridin-3-yl]-amide] |
| 177 nM | CCc1cc(C(=O)Nc2cncc(C(=O)c3cn(C(C)C)c4ncncc34)c2)no1 [Example 396, 5-Ethyl-isoxazole-3-carboxylic acid[5-(7-isopropyl-7H-pyrrolo[2,3-d]pyrimidine-5-carbonyl)-pyridin-3-yl]-amide] |
| 9800 nM | CC(C)n1cc(C(=O)c2cncc(NC(=O)c3ccnn3C)c2)c2cncnc21 [Example 397, 2-Methyl-2H-pyrazole-3-carboxylic acid [5-(7-isopropyl-7H-pyrrolo[2,3-d]pyrimidine-5-carbonyl)-pyridin-3-yl]-amide] |
| 138 nM | CC(C)n1cc(C(=O)c2cncc(NC(=O)c3cnc4ccccc4c3)c2)c2cncnc21 [Example 398, Quinoline-3-carboxylic acid [5-(7-isopropyl-7H-pyrrolo[2,3-d]pyrimidine-5-carbonyl)-pyridin-3-yl]-amide] |
| 153 nM | CC(C)n1cc(C(=O)c2cncc(NC(=O)c3cc4cc(F)cnc4[nH]3)c2)c2cncnc21 [Example 399, 5-Fluoro-1H-pyrrolo[2,3-b]pyridine-2-carboxylic acid [5-(7-isopropyl-7H-pyrrolo[2,3-d]pyrimidine-5-carbonyl)-pyridin-3-yl]-amide] |
| 593 nM | Cc1cc(C(=O)Nc2cncc(C(=O)c3cn(C(C)C)c4ncncc34)c2)nn1C [Example 400, 1,5-Dimethyl-1H-pyrazole-3-carboxylic acid [5-(7-isopropyl-7H-pyrrolo[2,3-d]pyrimidine-5-carbonyl)-pyridin-3-yl]-amide] |
| 132 nM | CC(C)n1cc(C(=O)c2cncc(NC(=O)c3coc(C4CC4)n3)c2)c2cncnc21 [Example 401, 2-Cyclopropyl-oxazole-4-carboxylic acid [5-(7-isopropyl-7H-pyrrolo[2,3-d]pyrimidine-5-carbonyl)-pyridin-3-yl]-amide] |
| 9800 nM | CC(C)n1cc(C(=O)c2cncc(NC(=O)c3scnc3C(F)(F)F)c2)c2cncnc21 [Example 402, 4-Trifluoromethyl-thiazole-5-carboxylic acid [5-(7-isopropyl-7H-pyrrolo[2,3-d]pyrimidine-5-carbonyl)-pyridin-3-yl]-amide] |
